According to patent US9133235B2, “Macrocyclic antagonists of the motilin receptor for treatment of gastrointestinal dysmotility disorders” (Ocera Therapeutics, Inc., priority 2006, dated 2015):

The molecules below were run against human motilin receptor (Homo sapiens, UniProt O43193) (assay: Competitive radioligand binding assay (motilin receptor)). Settings: [125I]-motilin competition, membranes of CHO cells with human motilin receptor; read-out: Ki.
Parameters: purchased PerkinElmer (SignalScreen) 6110544; host or cells: CHO cells, stably transfected; membranes
Protocol: A. Competitive Radioligand Binding Assay (Motilin Receptor)
The competitive binding assay at the human motilin receptor was carried out analogously to assays described in the literature.
• Membranes were prepared from CHO cells stably transfected with the human motilin receptor and utilized at a quantity of 1.5 μg/assay point. [PerkinElmer™ SignalScreen Product #6110544] • [^125I]-Motilin (PerkinElmer, #NEX-378); final concentration: 0.04-0.06 nM • Motilin (Bachem™, #H-4385); final concentration: 1 μM • Multiscreen Harvest plates-GF/B (Millipore™, #MAHFB1H60) • Deep-well polypropylene titer plate (Beckman Coulter™, #267006) • TopSeal-A (PerkinElmer, #6005185) • Bottom seal (Millipore, #MATAH0P00) • MicroScint-0 (PerkinElmer, #6013611) • Binding Buffer: 50 mM Tris-HCl (pH 7.4), 10 mM MgCl2, 1 mM EDTA, 0.1% BSA Assay Volumes: • 150 μL of membranes diluted in binding buffer • 10 μL of compound diluted in binding buffer • 10 μL of radioligand ([^125I]-Motilin) diluted in binding buffer Final Test Concentrations (N=11) for Compounds: • 10, 5.0, 2.0, 1.0, 0.50, 0.20, 0.10, 0.050, 0.020, 0.010, 0.0050 μM. Compound Handling:
Compounds were provided frozen on dry ice at a stock concentration of 10 mM diluted in 100% DMSO and stored at −20° C. until the day of testing. On the test day, compounds were allowed to thaw at room temperature and than diluted in assay buffer according to the desired test concentrations. Under these conditions, the maximum final DMSO concentration in the assay was 0.5%.
In deep-well plates, diluted cell membranes (1.5 μg/mL) are combined with 10 μL of either binding buffer (total binding, N=5), 1 μM motilin (non-specific binding, N=3) or the appropriate concentration of test compound. The reaction is initiated by addition of 10 μL of [^125I]-motilin (final conc. 0.04-0.06 nM) to each well. Plates are sealed with TopSeal-A, vortexed gently and incubated at room temperature for 2 hours. The reaction is arrested by filtering samples through pre-soaked (0.3% polyethyleneimine, 2 h) Multiscreen Harvest plates using a Tomtec Harvester, washed 9 times with 500 μL of cold 50 mM Tris-HCl (pH 7.4), and than plates are air-dried in a fumehood for 30 minutes. A bottom seal is applied to the plates prior to the addition of 25 μL of MicroScint-0 to each well. Plates are than sealed with TopSeal-A and counted for 30 sec per well on a TopCount Microplate Scintillation and Luminescence Counter (PerkinElmer) where results are expressed as counts per minute (cpm).
Data are analyzed by GraphPad™ Prism® (GraphPad Software, San Diego, Calif.) using a variable slope non-linear regression analysis.
[formula] where total and non-specific binding represent the cpm obtained in the absence or presence of 1 μM motilin, respectively.

Chain of human motilin receptor (O43193 whole entry): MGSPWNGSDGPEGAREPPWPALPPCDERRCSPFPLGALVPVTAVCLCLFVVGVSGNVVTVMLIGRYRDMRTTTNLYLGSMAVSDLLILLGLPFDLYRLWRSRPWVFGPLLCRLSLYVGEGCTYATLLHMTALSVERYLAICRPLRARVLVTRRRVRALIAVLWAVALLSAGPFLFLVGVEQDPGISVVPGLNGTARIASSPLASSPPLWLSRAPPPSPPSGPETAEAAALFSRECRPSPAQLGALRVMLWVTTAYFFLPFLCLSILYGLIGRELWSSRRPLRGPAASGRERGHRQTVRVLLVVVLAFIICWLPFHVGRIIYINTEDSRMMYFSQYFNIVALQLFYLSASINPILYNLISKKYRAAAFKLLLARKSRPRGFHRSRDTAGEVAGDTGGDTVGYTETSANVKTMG

Compound | Ki
CC(C)[C@H]1NC(=O)[C@@H](Cc2cccc(Cl)c2)NCCOc2ccccc2CCCNC(=O)[C@H](CCNC(=N)N)NC1=O [Compound 507] | ≤ 100 nM
CC(C)[C@H]1NC(=O)[C@@H](Cc2cccc(Cl)c2)NCCOc2ccccc2CCCNC(=O)[C@H](CNc2nccs2)NC1=O [Compound 509] | ≤ 100 nM
CC(C)[C@H]1NC(=O)[C@@H](Cc2cccc(F)c2)NCCOc2ccccc2C[C@@H](C)CNC(=O)[C@H](CN(C)C)NC1=O [Compound 514] | ≤ 1000 nM
CC(C)[C@H]1NC(=O)[C@@H](Cc2cccc(Cl)c2)NCCOc2ccccc2CCCNC(=O)[C@H](CC(=N)N)NC1=O [Compound 518] | ≤ 100 nM
CC(C)[C@H]1NC(=O)[C@@H](Cc2cccc(Cl)c2)NCCOc2ccccc2CCCNC(=O)[C@H](CNC2=NCCCN2)NC1=O [Compound 521] | ≤ 100 nM
CC(C)[C@H]1NC(=O)[C@@H](Cc2cccc(Cl)c2)NCCOc2ccccc2CCCNC(=O)[C@H](CN/C(N)=N/C#N)NC1=O [Compound 522] | ≤ 100 nM
CC(C)[C@H]1NC(=O)[C@@H](Cc2cccc(C(F)(F)F)c2)NCCOc2ccccc2CCCNC(=O)[C@H](Cn2nncc2CN)NC1=O [Compound 523] | ≤ 100 nM
CC(C)[C@H]1NC(=O)[C@@H](Cc2cccc(C(F)(F)F)c2)NCCOc2ccccc2CCCNC(=O)[C@H](CNc2ncccn2)NC1=O [Compound 524] | ≤ 100 nM
CC(C)[C@H]1NC(=O)[C@@H](Cc2cccc(C(F)(F)F)c2)NCCOc2ccccc2CCCNC(=O)[C@H](CN2CCOCC2)NC1=O [Compound 525] | ≤ 100 nM
Cc1cnnn1C[C@@H]1NC(=O)[C@@H](C(C)C)NC(=O)[C@@H](Cc2cccc(C(F)(F)F)c2)NCCOc2ccccc2CCCNC1=O [Compound 526] | ≤ 100 nM
Cc1nnnn1C[C@@H]1NC(=O)[C@@H](C(C)C)NC(=O)[C@@H](Cc2cccc(C(F)(F)F)c2)NCCOc2ccccc2CCCNC1=O [Compound 527] | ≤ 100 nM
Cc1nnn(C[C@@H]2NC(=O)[C@@H](C(C)C)NC(=O)[C@@H](Cc3cccc(C(F)(F)F)c3)NCCOc3ccccc3CCCNC2=O)c1C [Compound 528] | ≤ 100 nM
CC(C)C[C@@H]1NC(=O)[C@@H](C(C)C)NC(=O)[C@@H](Cc2cccc(F)c2)N[C@@H](C)COc2ccccc2CCCNC1=O [Compound 556] | ≤ 10 nM
CCC[C@@H]1NC(=O)[C@@H](CC)NC(=O)[C@@H](Cc2cccc(F)c2)N[C@@H](C)COc2ccccc2CCCNC1=O [Compound 558] | ≤ 10 nM

Results, then the molecule that gave them:

Ki | Compound
≤ 10 nM | CC(C)[C@H]1NC(=O)[C@@H](Cc2ccc(F)cc2)N[C@@H](C)COc2ccccc2CCCNC(=O)[C@H](CC2CC2)NC1=O [Compound 559]
≤ 10 nM | CCC[C@@H]1NC(=O)[C@@H](C(C)C)NC(=O)[C@@H](Cc2ccc(F)cc2)N[C@@H](C)COc2ccccc2CCCNC1=O [Compound 560]
≤ 10 nM | CCC[C@@H]1NC(=O)[C@@H](C(C)C)NC(=O)[C@@H](Cc2ccc(F)c(F)c2)N[C@@H](C)COc2ccccc2CCCNC1=O [Compound 561]
≤ 10 nM | CCC[C@@H]1NC(=O)[C@@H](C(C)C)NC(=O)[C@@H](Cc2cccc(OC)c2)N[C@@H](C)COc2ccccc2CCCNC1=O [Compound 562]
≤ 10 nM | C[C@@H]1CNC(=O)[C@H](CC2CC2)NC(=O)[C@@H](C2CC2)NC(=O)[C@@H](Cc2cccc(F)c2)NCCOc2ccccc2C1 [Compound 566]
≤ 10 nM | CC(C)[C@H]1NC(=O)[C@@H](Cc2ccc(F)cc2)NCCOc2ccccc2C[C@H](C)CNC(=O)[C@H](CC2CC2)NC1=O [Compound 567]
≤ 100 nM | CCC[C@@H]1NC(=O)[C@@H](C(C)C)NC(=O)[C@@H](Cc2ccc(C(F)(F)F)cc2)NCCOc2ccccc2CCCNC1=O [Compound 575]
≤ 1000 nM | CC(C)[C@H]1NC(=O)[C@@H](Cc2ccc(Cl)cc2)NCCOc2ccccc2CCCNC(=O)[C@H](CNS(C)(=O)=O)NC1=O [Compound 576]
≤ 1000 nM | CC(C)[C@H]1NC(=O)[C@@H](Cc2ccc(Cl)cc2)NCCOc2ccccc2CCCNC(=O)[C@H](CNC(N)=O)NC1=O [Compound 577]
≤ 1000 nM | CC(C)NC[C@@H]1NC(=O)[C@@H](C(C)C)NC(=O)[C@@H](Cc2ccc(O)cc2)NCCOc2ccccc2CCCNC1=O [Compound 579]
≤ 100 nM | CC(C)NC[C@@H]1NC(=O)[C@@H](C(C)C)NC(=O)[C@@H](Cc2ccc(Cl)cc2)NCCOc2ccccc2CCCNC1=O [Compound 581]
≤ 1000 nM | COc1ccc(C[C@H]2NCCOc3ccccc3CCCNC(=O)[C@H](CCO)NC(=O)[C@@H](C(C)C)NC2=O)cc1 [Compound 583]
≤ 100 nM | CC(C)[C@H]1NC(=O)[C@@H](Cc2cccc(F)c2)NCCOc2ccccc2CCCNC(=O)[C@H](CC2CC2)NC1=O [Compound 584]
≤ 100 nM | CC(C)[C@H]1NC(=O)[C@@H](Cc2cccc(F)c2)NCCOc2ccccc2C[C@@H](C)CNC(=O)[C@H](CC2CC2)NC1=O [Compound 587]
≤ 10 nM | CC(C)[C@H]1NC(=O)[C@@H](Cc2cccc(F)c2)NCCOc2ccccc2C[C@H](C)CNC(=O)[C@H](CC2CC2)NC1=O [Compound 588]

Same assay, conditions: previously determined during membrane characterization

Compound | Kd
CC[C@H](C)[C@H](NC(=O)[C@@H]1CCCN1C(=O)[C@@H](NC(=O)[C@@H](N)Cc1ccccc1)C(C)C)C(=O)N[C@@H](Cc1ccccc1)C(=O)N[C@H](C(=O)N[C@@H](Cc1ccc(O)cc1)C(=O)NCC(=O)N[C@@H](CCC(=O)O)C(=O)N[C@@H](CC(C)C)C(=O)N[C@@H](CCC(N)=O)C(=O)N[C@@H](CCCNC(=N)N)C(=O)N[C@@H](CCSC)C(=O)N[C@@H](CCC(N)=O)C(=O)N[C@@H](CCC(=O)O)C(=O)N[C@@H](CCCCN)C(=O)N[C@@H](CCC(=O)O)C(=O)N[C@@H](CCCNC(=N)N)C(=O)N[C@@H](CC(N)=O)C(=O)N[C@@H](CCCCN)C(=O)NCC(=O)N[C@@H](CCC(N)=O)C(=O)O)[C@@H](C)O [[^125I]-motilin, [^125I]-Motilin, reference compound] | 0.16 nM
